Patent US20260327225A1, “HETEROCYCLIC COMPOUNDS AS TRIGGERING RECEPTOR EXPRESSED ON MYELOID CELLS 2 AGONISTS AND METHODS OF USE” (VIGIL NEUROSCIENCE, INC., priority 2023, published 2026)

target: T1, human TREM2 (Homo sapiens, UniProt Q9NZC2); assay: TREM2 agonist potency by cellular phosphorylation of Syk (AlphaLisa) in HEK293T-hTREM2 cells expressing human TREM2 and DAP12; assay type: cell-based; conditions: HEK293 cells expressing hTREM2 and DAP12; 45 minutes at room temperature; Syk phosphorylation, AlphaLisa; read-out: hTREM2 EC50
T1 construct: expressed in transfected cells; host or cells: HEK293T-hTREM2 cells (HEK cell line expressing human TREM2 and DAP12)
T1 sequence (Q9NZC2 19-230): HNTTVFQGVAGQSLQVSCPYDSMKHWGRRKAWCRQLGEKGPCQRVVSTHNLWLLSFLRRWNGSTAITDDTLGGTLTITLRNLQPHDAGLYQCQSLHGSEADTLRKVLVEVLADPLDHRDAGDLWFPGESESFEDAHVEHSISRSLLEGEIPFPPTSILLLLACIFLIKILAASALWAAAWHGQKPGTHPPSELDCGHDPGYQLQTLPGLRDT
T1 sequence (O43914 22-113 partner): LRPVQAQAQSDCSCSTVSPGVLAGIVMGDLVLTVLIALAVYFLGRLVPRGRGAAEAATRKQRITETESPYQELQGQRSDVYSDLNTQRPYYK
Description: In vitro Measurement of Triggering Receptor Expressed on Myeloid Cells 2 activity using cellular phosphorylation of Spleen Tyrosine Kinase (“Syk”) Assays
Measurement of TREM2 agonist potency was done using a HEK cell line expressing human TREM2 and DAP12 (HEK293T-hTREM2 cells). Binding of small molecules to, and activation of, TREM2 increases the phosphorylation of Syk. The resultant levels of Syk phosphorylation are measured using a commercial AlphaLisa reagent kit. To perform the assay, HEK-hTREM2 cells were plated at 14,000 cells per well in a 384 well plate, in 25 μL of complete growth media and incubated at 37° C., 5% CO2 for 20-24 hours.
Prior to the assay, test compounds were diluted in the 384 well plates in assay buffer and allowed to equilibrate for 30 minutes. Growth media was removed from cell plates by inversion on blotting paper, and 25 μL of test articles in assay buffer was added to cells. Cells were incubated for 45 minutes at room temperature. After 45 minutes, assay buffer was removed and 10 μL of lysis buffer was added. Plates were shaken for 20 minutes at 350 RPM at room temperature. After complete lysis, AlphaLisa reagents were added to the lysate, and fluourescence intensity was measured using a Perkin Elmer Envision plate reader. Intensities were used to generate a standard curve, and % activation was calculated. Curve fitting was performed using Prism v9 software, log(agonist) vs response—variable slope (four parameters), and EC50s were calculated from the curve fit.
The results presented in Table B have been generated with the in vitro assay described above. This assay may be used to test any of the compounds described herein to assess and characterize a compound's ability to act as an agonist of TREM2.

| Compound | EC50 [nM] |
| --- | --- |
| Cc1nc2nc([C@@H]3CCO[C@H](c4cn(C)c(=O)s4)C3)nc(C34CC(C(F)(F)F)(C3)C4)c2nc1C [Example 107, 5-[(2S,4R)-4-[6,7-dimethyl-4-[3-(trifluoromethyl)-1-bicyclo[1.1.1]pentanyl]pteridin-2-yl]tetrahydropyran-2-yl]-3-methyl-thiazol-2-one] | < 100 |
| Cc1nc2nc(N3C[C@@H](C)O[C@@H](c4ccn5nccc5c4)C3)nc(C34CC(C(F)(F)F)(C3)C4)c2nc1C [Example 111, (2R,6S)-4-[6,7-dimethyl-4-[3-(trifluoromethyl)-1-bicyclo[1.1.1]pentanyl]pteridin-2-yl]-2-methyl-6-pyrazolo[1,5-a]pyridin-5-yl-morpholine] | < 100 |
| Cc1nc2nc(N3C[C@@H](C)O[C@@H](c4cnn(C5CC5)c4)C3)nc(C34CC(C(F)(F)F)(C3)C4)c2nc1C1CN(C(=O)OC(C)(C)C)C1 [Example 86, tert-butyl 3-[2-[(2S,6R)-2-(1-cyclopropylpyrazol-4-yl)-6-methyl-morpholin-4-yl]-7-methyl-4-[3-(trifluoromethyl)-1-bicyclo[1.1.1]pentanyl]pteridin-6-yl]azetidine-1-carboxylate] | > 500 |
| Cc1nc2nc(C3CCOC(c4ccc5nn(C)cc5c4)C3)nc(-c3ccc(F)cc3F)c2nc1C (centres unmarked) [Example 114, 4-(2,4-difluorophenyl)-6,7-dimethyl-2-[2-(2-methylindazol-5-yl)tetrahydropyran-4-yl]pteridine] | < 100 |
| Cc1nnc(-c2cc3c(C45CC(C(F)(F)F)(C4)C5)nc([C@H]4CCO[C@@H](c5cnn(C6CC6)c5)C4)nc3nc2C)o1 [Example 23, 2-(2-((2R,4S)-2-(1-cyclopropyl-1H-pyrazol-4-yl)tetrahydro-2H-pyran-4-yl)-7-methyl-4-(3-(trifluoromethyl)bicyclo[1.1.1]pentan-1-yl)pyrido[2,3-d]pyrimidin-6-yl)-5-methyl-1,3,4-oxadiazole] | < 100 |
| Cc1nc2nc(N3C[C@@H](C)O[C@@H](c4cnn(C5CC5)c4)C3)nc(C34CC(C(F)F)(C3)C4)c2cc1C#N [Example 73, 2-((2S,6R)-2-(1-cyclopropyl-1H-pyrazol-4-yl)-6-methylmorpholino)-4-(3-(difluoromethyl)bicyclo[1.1.1]pentan-1-yl)-7-methylpyrido[2,3-d]pyrimidine-6-carbonitrile] | < 100 |
| Cc1nc2nc(C3CCOC(c4ccn5nccc5c4)C3)nc(C34CC(C(F)(F)F)(C3)C4)c2nc1C (centres unmarked) [Example 109, 6,7-dimethyl-2-(2-pyrazolo[1,5-a]pyridin-5-yltetrahydropyran-4-yl)-4-[3-(trifluoromethyl)-1-bicyclo[1.1.1]pentanyl]pteridine] | < 100 |
| Cc1nc2nc(N3C[C@@H](C)O[C@@H](c4cnn(C5CC5)c4)C3)nc(C34CC(C#N)(C3)C4)c2nc1C [Example 102, 3-[2-[(2S,6R)-2-(1-cyclopropylpyrazol-4-yl)-6-methyl-morpholin-4-yl]-6,7-dimethyl-pteridin-4-yl]bicyclo[1.1.1]pentane-1-carbonitrile] | < 100 |
| Cc1cnc(-c2cc3c(-c4ccc(F)cc4F)nc(N4C[C@@H](C)O[C@@H](c5cnn(C6CC6)c5)C4)nc3nc2C)o1 [Example 13, (2S,6R)-2-(1-cyclopropylpyrazol-4-yl)-4-[4-(2,4-difluorophenyl)-7-methyl-6-(5-methyloxazol-2-yl)pyrido[2,3-d]pyrimidin-2-yl]-6-methyl-morpholine] | < 100 |
| CO/N=C(\C)c1cc2c(-c3ccc(F)cc3F)nc(N3C[C@@H](C)O[C@@H](c4cnn(C5CC5)c4)C3)nc2nc1C [Example 5, 1-[2-[(2S,6R)-2-(1-cyclopropylpyrazol-4-yl)-6-methyl-morpholin-4-yl]-4-(2,4-difluorophenyl)-7-methyl-pyrido[2,3-d]pyrimidin-6-yl]-N-methoxy-ethanimine] | < 100 |
| Cc1nc2nc(C3CCOC(c4cnnc(N(C)C)c4)C3)nc(C34CC(C(F)(F)F)(C3)C4)c2nc1C (racemic) [Example 130, N,N-dimethyl-5-[rac-trans-4-[6,7-dimethyl-4-[3-(trifluoromethyl)-1-bicyclo[1.1.1]pentanyl]pteridin-2-yl]tetrahydropyran-2-yl]pyridazin-3-amine] | 100 to 500 |
| Cc1nc2nc([C@@H]3CCO[C@@H](c4ccnc(N(C)C)c4)C3)nc(C34CC(C(F)(F)F)(C3)C4)c2nc1C (racemic) [Example 125, N,N-dimethyl-4-[rac-4-[6,7-dimethyl-4-[3-(trifluoromethyl)-1-bicyclo[1.1.1]pentanyl]pteridin-2-yl]tetrahydropyran-2-yl]pyridin-2-amine] | 100 to 500 |
| Cc1nc2nc(N3C[C@@H](C)O[C@@H](c4cnn(C5CC5)c4)C3)nc(-c3ccc(F)cc3F)c2cc1C#N [Example 21, 2-[(2S,6R)-2-(1-cyclopropylpyrazol-4-yl)-6-methyl-morpholin-4-yl]-4-(2,4-difluorophenyl)-7-methyl-pyrido[2,3-d]pyrimidine-6-carbonitrile] | < 100 |
| Cc1cc2cc(C3CC(c4nc(-c5ccc(F)cc5F)c5nc(C)c(C)nc5n4)CCO3)ccn2n1 (centres unmarked) [Example 116, 4-(2,4-difluorophenyl)-6,7-dimethyl-2-[2-(2-methylpyrazolo-[1,5-a]pyridin-5-yl)tetrahydropyran-4-yl]pteridine] | < 100 |
| COCn1cc([C@H]2CN(c3nc(C45CC(C(F)(F)F)(C4)C5)c4cc(C#N)c(C)nc4n3)C[C@@H](C)O2)cn1 [Example 71] | < 100 |
| Cc1nc2nc([C@H]3CCO[C@@H](c4cnn(C5CC5)c4)C3)nc(C34CC(C(F)(F)F)(C3)C4)c2cc1-c1ccn(C)n1 [Example 27, 2-((2R,4S)-2-(1-cyclopropyl-1H-pyrazol-4-yl)tetrahydro-2H-pyran-4-yl)-7-methyl-6-(1-methyl-1H-pyrazol-3-yl)-4-(3-(trifluoromethyl)-bicyclo[1.1.1]pentan-1-yl)pyrido[2,3-d]pyrimidine] | 100 to 500 |
| Cc1nc2nc([C@H]3CCO[C@@H](c4cn(C)c(=O)s4)C3)nc(C34CC(C(F)(F)F)(C3)C4)c2cc1C#N (racemic) [Example 81, 7-methyl-2-[rac-(2R,4S)-2-(3-methyl-2-oxo-thiazol-5-yl)tetrahydropyran-4-yl]-4-[3-(trifluoromethyl)-1-bicyclo[1.1.1]pentanyl]pyrido[2,3-d]pyrimidine-6-carbonitrile] | < 100 |
| Cc1nc2nc([C@H]3CCO[C@@H](c4cnn(C5CC5)c4)C3)nc(-c3ccc(F)cc3F)c2cc1C(=O)O [Example 9, 4-(2,4-difluorophenyl)-7-methyl-2-[(2R,4S)-2-(1-cyclopropylpyrazol-4-yl)tetrahydropyran-4-yl]pyrido[2,3-d]pyrimidine-6-carboxylic acid] | > 500 |
| Cc1cc([C@H]2CN(c3nc(C4CCCCC4)c4cc(C#N)c(C)nc4n3)CCO2)cnn1 [Example 46, 4-cyclohexyl-7-methyl-2-[2-(6-methyl-pyridazin-4-yl)morpholin-4-yl]-pyrido[2,3-d]pyrimidine-6-carbonitrile] | < 100 |
| COC(=O)c1cc2c(-c3ccc(F)cc3F)nc(N3C[C@@H](C)O[C@@H](c4cnn(C5CC5)c4)C3)nc2nc1C [Example 1, methyl 2-[(2S,6R)-2-(1-cyclopropylpyrazol-4-yl)-6-methyl-morpholin-4-yl]-4-(2,4-difluorophenyl)-7-methyl-pyrido[2,3-d]pyrimidine-6-carboxylate] | < 100 |
